Laboratory results as given in patent US20230021483A1, “[…] […] METHOD AND CLASSIFICATION OF PHARMACEUTICAL COMPONENTS BY USING TRANSCRIPTOMES” (National Institutes of Biomedical Innovation, Health and …, priority 2016, published 2023).
Peptide text beside a SMILES is read from it. * marks the point of attachment. X1 = CCCCCCCCCCCCCCCC(=O)OCC(C*)OC(=O)CCCCCCCCCCCCCCC; Palmitoyl = CCCCCCCCCCCCCCCC(=O)*

Columns and labels:
Format in all cases: in vivo, C57BL/6 mice
[1] = tested on: circulating blood cells; test: Hematological cell count of peripheral blood 6 h after adjuvant administration (VetScan HMII); conditions: mouse, in vivo
Experimental: Take about 200 μL of blood from the retro-orbital venous plexus with a non-heparinized capillary tube and place the blood into a 1.5 mL tube comprising 2 μL of 10% EDTA-2K for hematological testing. Thoroughly mix the sample by gentle tapping. Stored at room temperature until hematological testing.
The hematological cell count was found using VetScan HMII (Abaxis). 50 μl of EDTA-2K blood sample was diluted by adding 250 μl of saline. Measurements are taken with VetScan HMII by following the instruction.
In a preliminary experiment, FCA and ALM were tested at different points up to 72 hours. […] At 6 hours after adjuvant administration, LV, SP, and LN (both sides) were removed to study the gene expression thereof by using Affimetrix Genechip microarray system (Affymetrix). The sampled organs were each placed in a tube containing RNAlater. The tube was maintained at 4° C. overnight, and stored at −80° C. until use. Blood was also collected after 6 hours from adjuvant administration for general hematological testing. About 200 μL of blood was taken from the retro-orbital venous plexus with a non-heparinized capillary tube and placed into a 1.5 mL tube comprising 2 μL of 10% EDTA-2K for hematological testing. The hematological cell count was found using VetScan HMII (Abaxis). 50 μl of EDTA-2K blood sample was diluted by adding 250 μl of saline. Measurements were taken with VetScan HMII by following the instruction.
The effect of adjuvant administration with respect to the changes in several hematological parameters was investigated. The following parameters were studied: white blood cells (WBC), lymphocytes (LYM), monocytes (MON), granulocytes (GRA), relative (%) content of lymphocytes (LY %), relative (%) content of monocytes (MO %), relative (%) content of granulocytes (GR %), red blood cells (RBC), hemoglobins (Hb, HGB), hematocrits (HCT), mean corpuscular volume (MCV), mean corpuscular hemoglobins (MCH), mean corpuscular hemoglobin concentration (MCHC), red blood cell distribution width (RDW), platelets (PLT), platelet concentration (PCT), mean platelet volume (MPV), and platelet distribution width (PDW).

[2] = tested on: liver (LV); test: Whole organ transcriptome (GeneChip microarray) of liver 6 h after adjuvant administration: sDEGs, hierarchical clustering; on adjuvant group (cluster) in LV: key: G1 (interferon signaling); G2 (metabolism of lipids and lipoproteins); G3 (response to stress); G4 (response to wounding); G5 (phosphate-containing compound metabolic process); G6 (phagosome); conditions: liver; for Number of gene probes with statistically significant changes (sDEGs), LV, Down / Number of gene probes with statistically significant changes (sDEGs), LV, Up: i.d. administration, 6 h after adjuvant; for Number of gene probes with statistically significant changes (sDEGs), LV, Down: fold change <0.667, p<0.01, customized PA call=1; for Number of gene probes with statistically significant changes (sDEGs), LV, Up: fold change >1.5, p<0.01, customized PA call=1
[3] = tested on: inguinal lymph nodes (LN); test: Whole organ transcriptome (GeneChip microarray) of draining inguinal lymph nodes 6 h after adjuvant administration: sDEGs, gene modules, hierarchical clustering; on adjuvant group (cluster) in LN: key: G1 (interferon signaling); G2 (metabolism of lipids and lipoproteins); G3 (response to stress); G4 (response to wounding); G5 (phosphate-containing compound metabolic process); G6 (phagosome); conditions: for Number of gene probes with statistically significant changes (sDEGs), LN, Down / Number of gene probes with statistically significant changes (sDEGs), LN, Up: i.d. administration, 6 h after adjuvant; for Number of gene probes with statistically significant changes (sDEGs), LN, Down: fold change <0.667, p<0.01, customized PA call=1; for Number of gene probes with statistically significant changes (sDEGs), LN, Up: fold change >1.5, p<0.01, customized PA call=1
[4] = tested on: spleen (SP); test: Whole organ transcriptome (GeneChip microarray) of spleen 6 h after adjuvant administration: sDEGs, hierarchical clustering; on adjuvant group (cluster) in SP: key: G1 (interferon signaling); G2 (metabolism of lipids and lipoproteins); G3 (response to stress); G4 (response to wounding); G5 (phosphate-containing compound metabolic process); G6 (phagosome); conditions: for Number of gene probes with statistically significant changes (sDEGs), SP, Down / Number of gene probes with statistically significant changes (sDEGs), SP, Up: i.d. administration; for Number of gene probes with statistically significant changes (sDEGs), SP, Down: fold change <0.667, p<0.01, customized PA call=1, 6 h after adjuvant; for Number of gene probes with statistically significant changes (sDEGs), SP, Up: fold change >1.5, p<0.01, customized PA call=1, 6 h after adjuvant
[5] = tested on: preferentially upregulated genes in LV, SP, LN; test: Z-score-based differential gene expression analysis (adjuvant group- or adjuvant-associated genes, 40 module mapping, TargetMine annotation); conditions: z-score selected genes; TargetMine and IPA upstream cytokine analyses
Source text: Each sample's FC value was converted into a z-score on a gene basis by using the entire data set for each organ. The Z-score of the triplicates of interest were summed for each adjuvant. For example, the three sample z-score in the LV sample following cdiGMP administration was summed on a gene-by-gene basis, after which the summed scores of >3 genes were selected as relatively preferentially expressed genes in the LV after cdiGMP administration. The following threshold was applied for selections. […] G2^LV: ALM_IP(z>1) & bCD(z>1) & ENDCN(z>1) & FCA(z>1). […] G4^LV: MALP2s(z>3). […] G2^SP: ENDCN_x2+ENDCN_x3(z>2) & ALM_IP(z>3) & bCD(z>3). […] G4^SP: ADX_ID_x2+ADX_ID_x3(z>2) & ADX_IP(z>3) & MALP2s(z>3). […] G2^LN: bCD(z>3) & FCA(z>3). […] G5^LN: K3(z>1.5) & K3SPG_x1+K3SPG_x2(z>1) & D35_x1+D35_x3(z>1). G6^LN: AddaVax(z>3).

[6] = tested on: LV, SP and LNs; test: Whole organ transcriptome across organs (adjuvant gene space): gene responses and adjuvant grouping; conditions: hierarchical clustering; LV, SP and/or LNs

monocytosis (monocytes in blood) [1]	leukopenia [1]	lymphopenia [1]	Compound	Number of gene probes with statistically significant changes (sDEGs), LV, Down [2]	Number of gene probes with statistically significant changes (sDEGs), LV, Up [2]	Number of gene probes with statistically significant changes (sDEGs), LN, Down ([3]; lymph node)	Number of gene probes with statistically significant changes (sDEGs), LN, Up ([3]; lymph node)	Number of gene probes with statistically significant changes (sDEGs), SP, Down [4]	Number of gene probes with statistically significant changes (sDEGs), SP, Up [4]	adjuvant group (cluster) in LV ([2]; hierarchical clustering)	adjuvant group-associated biological features [5]	module M40^LN (immune system process; dendritic cells, macrophages, neutrophils, stromal cells) ([3]; LN, 6 h)	adjuvant group (cluster) in LN ([3]; hierarchical clustering, lymph node)	adjuvant group (cluster) within the adjuvant gene space [6]	adjuvant group (cluster) in SP ([4]; hierarchical clustering)
clearly induced			CCCCCCCCCCCCCCCC(=O)N[C@@H](CSCC(COC(=O)CCCCCCCCCCCCCCC)OC(=O)CCCCCCCCCCCCCCC)C(=O)N[C@@H](CO)C(=O)N[C@@H](CCCCN)C(=O)N[C@@H](CCCCN)C(=O)N[C@@H](CCCCN)C(=O)N[C@@H](CCCCN)C(=O)O (stereo partly drawn) [Pam3CSK4, Pam-3-Cys-Ser-Lys-Lys-Lys-Lys] (Palmitoyl-C(X1)SKKKK-OH)												
			Nc1nc2c(ncn2[C@@H]2O[C@@H]3COP(=O)(O)O[C@H]4[C@@H](O)[C@H](n5cnc6c(=O)[nH]c(N)nc65)O[C@@H]4COP(=O)(O)O[C@H]3[C@H]2O)c(=O)[nH]1 [cdlGMP]	218	280	908	1579	261	707						
	caused leukopenia	strongly induced	Polyinosine-polycytidylic acid [PolyIC]	1122	516	1460	2203	738	1360	G1	strongly associated with type I and type II interferon responses	strongly induced	G1	group (G) 1	G1
